Source: article PMC12257509, “New Generation Modified Azole Antifungals against Multidrug-Resistant” (Journal of Medicinal Chemistry, 2025)
Where two headings read alike, the source gives them in different places.

Molecular target: T1, CYP51 (CaCYP51), lanosterol 14α-demethylase (Candida albicans, UniProt P10613)
T1 construct: gene ERG11; recombinant CaCYP51
Assay: CYP51 reconstitution assay with CPR and NADPH, GC-MS of demethylated sterols
Type: biochemical

T1 sequence (P10613 whole entry): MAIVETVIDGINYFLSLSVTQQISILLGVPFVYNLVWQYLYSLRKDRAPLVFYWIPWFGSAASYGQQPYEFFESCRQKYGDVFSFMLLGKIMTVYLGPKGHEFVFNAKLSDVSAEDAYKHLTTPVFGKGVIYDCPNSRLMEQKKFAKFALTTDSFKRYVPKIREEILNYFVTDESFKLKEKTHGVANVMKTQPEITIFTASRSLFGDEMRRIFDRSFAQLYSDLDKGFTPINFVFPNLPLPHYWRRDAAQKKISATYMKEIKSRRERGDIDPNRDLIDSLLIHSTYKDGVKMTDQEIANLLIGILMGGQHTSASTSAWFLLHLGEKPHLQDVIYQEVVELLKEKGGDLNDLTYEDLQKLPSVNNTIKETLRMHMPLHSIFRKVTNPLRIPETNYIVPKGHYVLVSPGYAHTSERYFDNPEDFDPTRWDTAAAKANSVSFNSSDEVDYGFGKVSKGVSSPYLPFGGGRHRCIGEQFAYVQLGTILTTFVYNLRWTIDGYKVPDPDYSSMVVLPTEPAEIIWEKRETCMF

Row | SMILES | IC50 [µM] | IC50 (read-out: IC50) [µM]
1 | OC(CN1CCC(Nc2ncc(F)cn2)CC1)(Cn1cncn1)c1ccc(F)cc1F (racemic) [compound 7, 2-(2,4-Difluorophenyl)-1-(4-((5-fluoropyrimidin-2-Yl)-amino)-piperidin-1-Yl)-3-(1h-1,2,4-triazol-1-Yl)-propan-2-Ol] | ~0.4 | –
2 | OC(Cn1cncn1)(Cn1cncn1)c1ccc(F)cc1F [fluconazole] | – | ~0.6
